Experiments:
[1] = test system: S. aureus DSM 20231; assay: Bliss interaction score (quartile over a dose matrix) (fitness difference); higher = more antagonism (negative = synergy)
Summary of the method: (§1)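 The Bliss score takes observed fitness and subtracts the expected fitness, calculated as a product of single-drug fitness values. Those single-drug values were inferred from the combination data. Fitness is OD595 at entry into stationary phase divided by the plate's robust no-drug mean, capped at 1, and the score is summarised by quartiles across technical, biological and donor/recipient replicates.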

[2] = test system: B. subtilis 168; assay: as above
Summary of the method: as §1

[3] = test system: S. aureus Newman; assay: as above
Summary of the method: as §1

[4] = test system: S. pneumoniae D39V; assay: as above
Summary of the method: as §1

[5] = test system: S. aureus DSM 20231; assay: fitness (endpoint OD595 vs no drug) (fraction); higher = more growth
Summary of the method: (§2)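 Cultures at OD595 0.01 were dispensed into 384-well plates in TSB, LB Lennox or CY and incubated at 37 °C. Every 30 min for 14 h, OD595 was read and corrected by the first reading. Fitness is the optical density at entry into stationary phase relative to the robust mean of no-drug control wells, capped at 1.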

[6] = test system: S. aureus Newman; assay: as above
Summary of the method: as §2

[7] = test system: S. pneumoniae D39V; assay: as above
Summary of the method: as §2
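For Bliss interaction score (quartile over a dose matrix) in this document: first quartile when negative (synergy) and third quartile when positive (antagonism).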

COc1c(N2C[C@@H]3CCCN[C@@H]3C2)c(F)cc2c(=O)c(C(=O)O)cn(C3CC3)c12 [Moxifloxacin] + Cn1nnc(-c2ccc(-c3ccc(N4C[C@H](CO)OC4=O)cc3F)cn2)n1 [Tedizolid]
Details | Bliss interaction score
[1] | 0.103
[2] | -0.0253
[3] | 0.0881
[4] | -0.0629

fitness
Details | partner 0.03125 µg/mL | partner 0.0625 µg/mL | partner 0.125 µg/mL | partner 0.25 µg/mL | partner 0.5 µg/mL
[5], first compound 0.0075 µg/mL | – | 0.813 | 0.765 | 0.411 | –
[5], first compound 0.015 µg/mL | – | 0.755 | 0.704 | 0.453 | –
[5], first compound 0.03 µg/mL | – | 0.682 | 0.7 | 0.653 | –
[6], first compound 0.0075 µg/mL | – | 0.755 | 0.737 | 0.41 | –
[6], first compound 0.015 µg/mL | – | 0.587 | 0.581 | 0.291 | –
[6], first compound 0.03 µg/mL | – | – | 0.343 | 0.178 | –
[7], first compound 0.0037 µg/mL | 0.887 | 0.877 | 0.741 | – | –
[7], first compound 0.005 µg/mL | – | – | 0.851 | 0.8 | 0.441
[7], first compound 0.0075 µg/mL | 0.904 | 0.871 | 0.761 | – | –
[7], first compound 0.01 µg/mL | – | – | 0.857 | 0.775 | 0.466
[7], first compound 0.015 µg/mL | 0.897 | 0.822 | 0.761 | – | –
[7], first compound 0.02 µg/mL | – | – | 0.842 | 0.778 | 0.49

fitness, [5], one replicate
Details | partner 0.0625 µg/mL | partner 0.125 µg/mL | partner 0.25 µg/mL
first compound 0.06 µg/mL | 0.67 | 0.69 | 0.727
first compound 0.12 µg/mL | 0.511 | 0.539 | 0.595

CN[C@H](CC(C)C)C(=O)N[C@H]1C(=O)N[C@@H](CC(N)=O)C(=O)N[C@H]2C(=O)N[C@H]3C(=O)N[C@H](C(=O)N[C@H](C(=O)O)c4cc(O)cc(O)c4-c4cc3ccc4O)[C@H](O)c3ccc(c(Cl)c3)Oc3cc2cc(c3O[C@@H]2O[C@H](CO)[C@@H](O)[C@H](O)[C@H]2O[C@H]2C[C@](C)(N)[C@H](O)[C@H](C)O2)Oc2ccc(cc2Cl)[C@H]1O [Vancomycin] + CC1=C\[C@@H](O)CC(=O)Cc2nc(co2)C(=O)N2CCC=C2C(=O)O[C@H](C(C)C)[C@H](C)/C=C/C(=O)NC\C=C\1 [Virginiamycin M1]
Details | Bliss interaction score
[1] | 0.0837
[2] | -0.0585
[3] | 0.0634
[4] | 0.128

Details | fitness
[5], first compound 0.1875 µg/mL, partner 0.0625 µg/mL | ≥ 1
[5], first compound 0.1875 µg/mL, partner 0.125 µg/mL | ≥ 1
[5], first compound 0.1875 µg/mL, partner 0.25 µg/mL | 0.998
[5], first compound 0.375 µg/mL, partner 0.0625 µg/mL | ≥ 1
[5], first compound 0.375 µg/mL, partner 0.125 µg/mL | ≥ 1
[5], first compound 0.375 µg/mL, partner 0.25 µg/mL | ≥ 1
[5], first compound 0.75 µg/mL, partner 0.0625 µg/mL | ≥ 1
[5], first compound 0.75 µg/mL, partner 0.125 µg/mL | ≥ 1
[5], first compound 0.75 µg/mL, partner 0.25 µg/mL | ≥ 1
[6], first compound 0.1875 µg/mL, partner 0.0625 µg/mL | 0.991
[6], first compound 0.1875 µg/mL, partner 0.125 µg/mL | 0.994
[6], first compound 0.1875 µg/mL, partner 0.25 µg/mL | 0.99
[6], first compound 0.375 µg/mL, partner 0.0625 µg/mL | ≥ 1
[6], first compound 0.375 µg/mL, partner 0.125 µg/mL | 0.988
[6], first compound 0.375 µg/mL, partner 0.25 µg/mL | 0.977
[6], first compound 0.75 µg/mL, partner 0.0625 µg/mL | ≥ 1
[6], first compound 0.75 µg/mL, partner 0.125 µg/mL | 0.995
[6], first compound 0.75 µg/mL, partner 0.25 µg/mL | 0.962
[7], first compound 0.03125 µg/mL, partner 0.5 µg/mL | ≥ 1
[7], first compound 0.03125 µg/mL, partner 1 µg/mL | ≥ 1
[7], first compound 0.03125 µg/mL, partner 2 µg/mL | 0.982
[7], first compound 0.0625 µg/mL, partner 0.5 µg/mL | 0.982
[7], first compound 0.0625 µg/mL, partner 1 µg/mL | 0.97
[7], first compound 0.0625 µg/mL, partner 2 µg/mL | 0.971
[7], first compound 0.125 µg/mL, partner 0.5 µg/mL | 0.988
[7], first compound 0.125 µg/mL, partner 1 µg/mL | 0.939
[7], first compound 0.125 µg/mL, partner 2 µg/mL | 0.945
[7], first compound 0.25 µg/mL, partner 2 µg/mL | 0.881

fitness, one replicate
Details | partner 0.15 µg/mL | partner 0.3 µg/mL | partner 0.5 µg/mL | partner 1 µg/mL | partner 2 µg/mL
[5], first compound 0.1875 µg/mL | – | – | 0.766 | 0.687 | –
[5], first compound 0.375 µg/mL | – | – | 0.727 | 0.733 | –
[5], first compound 0.75 µg/mL | – | – | 0.795 | 0.791 | –
[6], first compound 0.1875 µg/mL | – | – | 0.913 | 0.98 | 0.883
[6], first compound 0.375 µg/mL | – | – | 0.887 | 0.97 | 0.861
[6], first compound 0.75 µg/mL | – | – | 0.815 | 0.93 | 0.903
[7], first compound 0.125 µg/mL | ≥ 1 | ≥ 1 | – | – | –
[7], first compound 0.25 µg/mL | 0.946 | 0.993 | 0.873 | 0.681 | –
[7], first compound 0.5 µg/mL | 0.355 | 0.71 | 0.366 | 0.0772 | –
